Reference: the NIST ThermoML archive (doi:10.1016/j.jct.2018.08.004)

Experiment: xn = mol fraction of the nth substance listed
Conditions: for surface tension liquid-gas: Maximal bubble pressure; for mass density: 100 kPa, Liquid, Vibrating tube method

CCCC[n+]1ccccc1.N#C[N-]C#N [1-butylpyridinium dicyanamide] + CCCO
Conditions	mass density [kg/m3]	surface tension liquid-gas [mN/m]
288.15 K, x1 = 0.1001	872.25	26.5
288.15 K, x1 = 0.2008	919.12	27.9
288.15 K, x1 = 0.3008	954.79	29.5
288.15 K, x1 = 0.4009	982.76	31.7
288.15 K, x1 = 0.4994	1005.24	33.1
288.15 K, x1 = 0.5998	1023.96	35.7
288.15 K, x1 = 0.6976	1039.92	38.4
288.15 K, x1 = 0.7974	1052.61	41.2
288.15 K, x1 = 0.903	1064.59	45.8
288.15 K, x1 = 1	1074.97	56.3
293.15 K, x1 = 0.1001	868.53	26.1
293.15 K, x1 = 0.2008	915.57	27.6
293.15 K, x1 = 0.3008	951.37	29.1
293.15 K, x1 = 0.4009	979.42	31.3
293.15 K, x1 = 0.4994	1001.98	32.8
293.15 K, x1 = 0.5998	1020.75	35.3
293.15 K, x1 = 0.6976	1036.74	38
293.15 K, x1 = 0.7974	1049.46	41
293.15 K, x1 = 0.903	1061.47	45.6
293.15 K, x1 = 1	1071.9	56
298.15 K, x1 = 0.1001	864.79	25.6
298.15 K, x1 = 0.2008	912.01	27.1
298.15 K, x1 = 0.3008	947.94	28.8
298.15 K, x1 = 0.4009	976.09	31.1
298.15 K, x1 = 0.4994	998.72	32.5
298.15 K, x1 = 0.5998	1017.54	35
298.15 K, x1 = 0.6976	1033.57	37.7
298.15 K, x1 = 0.7974	1046.31	40.7
298.15 K, x1 = 0.903	1058.35	45.2
298.15 K, x1 = 1	1068.83	55.7
303.15 K, x1 = 0.1001	861.04	25.2
303.15 K, x1 = 0.2008	908.45	26.7
303.15 K, x1 = 0.3008	944.53	28.4
303.15 K, x1 = 0.4009	972.76	30.7
303.15 K, x1 = 0.4994	995.47	32.2
303.15 K, x1 = 0.5998	1014.34	34.7
303.15 K, x1 = 0.6976	1030.42	37.4
303.15 K, x1 = 0.7974	1043.18	40.4
303.15 K, x1 = 0.903	1055.25	45
303.15 K, x1 = 1	1065.76	55.5
308.15 K, x1 = 0.1001	857.28	24.7
308.15 K, x1 = 0.2008	904.9	26.4
308.15 K, x1 = 0.3008	941.11	28.1
308.15 K, x1 = 0.4009	969.44	30.4
308.15 K, x1 = 0.4994	992.23	31.7
308.15 K, x1 = 0.5998	1011.15	34.4
308.15 K, x1 = 0.6976	1027.27	37.1
308.15 K, x1 = 0.7974	1040.07	40.1
308.15 K, x1 = 0.903	1052.16	44.7
308.15 K, x1 = 1	1062.7	55.2
313.15 K, x1 = 0.1001	853.51	24.4
313.15 K, x1 = 0.2008	901.33	26
313.15 K, x1 = 0.3008	937.71	27.7
313.15 K, x1 = 0.4009	966.13	30
313.15 K, x1 = 0.4994	989	31.5
313.15 K, x1 = 0.5998	1007.98	34.1
313.15 K, x1 = 0.6976	1024.14	36.8
313.15 K, x1 = 0.7974	1036.96	39.8
313.15 K, x1 = 0.903	1049.09	44.4
313.15 K, x1 = 1	1059.66	54.9
318.15 K, x1 = 0.1001	849.73	24
318.15 K, x1 = 0.2008	897.78	25.6
318.15 K, x1 = 0.3008	934.3	27.3
318.15 K, x1 = 0.4009	962.85	29.6
318.15 K, x1 = 0.4994	985.79	31.2
318.15 K, x1 = 0.5998	1004.82	33.8
318.15 K, x1 = 0.6976	1021.02	36.6
318.15 K, x1 = 0.7974	1033.88	39.5
318.15 K, x1 = 0.903	1046.03	44.1
318.15 K, x1 = 1	1056.64	54.5
